Results reported in patent US20080132536A1, “PYRAZOLO [3,4-B] PYRIDINE COMPOUNDS, AND THEIR USE AS PDE4 INHIBITORS” (Glaxo Group Limited, priority 2003, published 2008).

Columns and labels:
[1] = test system: conscious ferret; assay: In Vivo Assay 4: therapeutic index of orally-administered PDE4 inhibitors in the conscious ferret (LPS-induced pulmonary neutrophilia and emesis); set-up: species or system ferret (Mustela Pulorius Furo); settings: p.o.
Method: PDE4 inhibitors are prepared for oral (p.o.) administration by dissolving in a fixed volume (ca. 1 ml) of acetone and then adding cremophor to ca. 20% of the final volume. Acetone is evaporated by directing a flow of nitrogen gas onto the solution. Once the acetone is removed, the solution is made up to final volume with distilled water. LPS is dissolved in phosphate buffered saline.
Male ferrets (Mustela Pulorius Furo, weighing 1-2 kg) are transported and allowed to acclimatise for not less than 7 days. The diet comprises SDS diet C pelleted food given ad lib with Whiskers™ cat food given 3 times per week. The animals are supplied with pasteurised animal grade drinking water changed daily.
PDE4 inhibitors are administered orally (p.o.), using a dose volume of ca. 1 ml/kg. […] The animals are constantly observed and any emetic episodes (retching and vomiting) or behavioural changes are recorded. […]
About thirty minutes after oral dosing with compound or vehicle control, the ferrets are placed into sealed perspex containers and exposed to an aerosol of LPS (ca. 30 μg/ml=ca. 30 ug/ml) for ca. 10 minutes. […] All emetic episodes and behavioural changes are recorded.
About six hours after LPS exposure the animals are killed by overdose of sodium pentobarbitone administered intraperitoneally. […] From this, the total number of neutrophils in the BAL sample is determined. […]

[2] = From the text: Micronisation usually involves subjecting the compound/salt to collisional and/or abrasional forces in a fast-flowing circular or spiral/vortex-shaped airstream often including a cyclone component.
In particle size measurements, D90, D50 and D10 respectively mean that 90%, 50% and 10% of the material is less than the micron size specified. D50 is the median particle size. DV90, DV50 and […] respectively mean that 90%, 50% and 10% by volume of the material is less than the micron size specified. DM90, DM50 and DM10 respectively mean that 90%, 50% and 10% by weight of the material is less than the micron size specified.
Laser diffraction measurement of particle size can use a dry method (wherein a suspension of the compound/salt in an airflow crosses the laser beam) or a wet method [wherein a suspension of the compound/salt in a liquid dispersing medium, such as isooctane or (e.g. if compound is soluble in isooctane) 0.1% Tween 80 in water, crosses the laser beam]. With laser diffraction, particle size is preferably calculated using the Fraunhofer calculation; and/or preferably a Malvern Mastersizer or Sympatec apparatus is used for measurement.
• Purpose: To micronise Example 73, 75, 98, 283, 304, 306, 307, 308, 309, 310, 311, 312, 313, 314 or 314A or 333 (described hereinafter), usually in an amount of approximately 600-1000 mg thereof, using a Jetpharma MC 1 micronizer. • The parent (unmicronised) and micronised materials are analyzed for particle size by laser diffraction and crystallinity by PXRD.
The micronizer is assembled. The narrow head of the venturi inlet is positioned below and slightly forward of the material inlet port and is measured with a micro-caliper to make sure that it is inserted correctly. The ring (R) and venturi (V) pressures are adjusted according to the values specified in the experimental design (refer to experimental section below) by adjusting the valves on the pressure gauges on the micronizer. The setup is checked for leakage by observing if there is any fluctuation in the reading of the pressure gauges.
Balance performance is checked with calibration weights. Specified amount of the parent material (see e.g. section on experimental run Procedure 1 for Example 307) is fed into the input container of the micronizer using a spatula. The input container plus material is weighed. The equipment pressure is monitored during the micronization process.
Upon completion of the micronising run, the nitrogen supply is shut off and the micronised material is allowed to settle into the micronizer container. The micronised powder in the micronizer container (collection vessel) and the cyclone (above the recovery vessel) are collected together into a pre-weighed and labelled collection vial. The weight of the micronised material is recorded. The input container is re-weighed in order to calculate the amount of input material by difference. The micronizer is disassembled and residual PDE4 compound on the micronizer inner surface is rinsed with 70/30 isopropyl alcohol/water and collected into a flask. The micronizer is then thoroughly cleaned in a Lancer washing machine and dried before subsequent runs are performed.

[3] = target: T1, PDE4B (human recombinant) (Homo sapiens, UniProt Q07343); assay: PDE4B inhibition, radioactive SPA and/or IMAP fluorescence polarisation (FP) assay; format: biochemical; settings: for IC50: one reading or average of several (ca. 2-6) readings, SPA and/or FP assay, range given for a group of Examples, read-out: PDE4B pIC50 (±about 0.5) (converted); for PDE4B inhibitory activity compared with the comparable Example of opposite stereochemistry at the CR4R5 (benzylic) carbon atom: comparators: Examples 6, 7, 29, 26, 64, 126, 124, 170, 177
T1 construct: made in house
From the text: Human recombinant PDE4B, in particular the 2B splice variant thereof (HSPDE4B2B), is disclosed in WO 94/20079 and also M. M. McLaughlin et al., “A low Km, rolipram-sensitive, cAMP-specific phosphodiesterase from human brain: cloning and expression of cDNA, biochemical characterisation of recombinant protein, and tissue distribution of mRNA”, J. Biol. Chem., 1993, 268, 6470-6476. For example, in Example 1 of WO 94/20079, human recombinant PDE4B is described as being expressed in the PDE-deficient yeast Saccharomyces cerevisiae strain GL62, e.g. after induction by addition of 150 uM CuSO4, and 100,000×g supernatant fractions of yeast cell lysates are described for use in the harvesting of PDE4B enzyme.
The ability of compounds to inhibit catalytic activity at PDE4B or 4D (human recombinant), PDE3 (from bovine aorta), PDE5 (human recombinant) or PDE6 (from bovine retina) can optionally be determined by Scintillation Proximity Assay (SPA) in 96-well format.
Test compounds (as a solution in DMSO, preferably about 2 microlitre (ul) volume of DMSO solution) are preincubated at ambient temperature (room temperature, e.g. 19-23° C.) in Wallac Isoplates (code 1450-514) with PDE enzyme in 50 mM Tris-HCl buffer pH 7.5, 8.3 mM MgCl2, 1.7 mM EGTA, 0.05% (w/v) bovine serum albumin for 10-30 minutes (usually 30 minutes). The enzyme concentration is adjusted so that no more than 20% hydrolysis of the substrate defined below occurs in control wells without compound, during the incubation. For the PDE3, PDE4B and PDE4D assays, [5′,8-3H]Adenosine 3′,5′-cyclic phosphate (Amersham Pharmacia Biotech, code TRK.559; or Amersham Biosciences UK Ltd, Pollards Wood, Chalfont St Giles, Buckinghamshire HP8 4SP, UK) is added to give 0.05 uCi per well and about 10 nM final concentration. For the PDE5 and PDE6 assays, [8-^3H]Guanosine 3′,5′-cyclic phosphate (Amersham Pharmacia Biotech, code TRK.392) is added to give 0.05 uCi per well and about 36 nM final concentration. Plates containing assay mixture, preferably approx. 100 ul volume of assay mixture, are mixed on an orbital shaker for 5 minutes and incubated at ambient temperature for 1 hour. Phosphodiesterase SPA beads (Amersham Pharmacia Biotech, code RPNQ 0150) are added (about 1 mg per well) to terminate the assay. Plates are sealed and shaken and allowed to stand at ambient temperature for 35 minutes to 1 hour (preferably 35 minutes) to allow the beads to settle. Bound radioactive product is measured using a WALLAC TRILUX 1450 Microbeta scintillation counter. For inhibition curves, 10 concentrations (1.5 nM-30 uM) of each compound are assayed. Curves are analysed using ActivityBase and XLfit (ID Business Solutions Limited, 2 Ocean Court, Surrey Research Park, Guildford, Surrey GU2 7QB, United Kingdom) Results are expressed as pIC50 values.
The ability of compounds to inhibit catalytic activity at PDE4B (human recombinant) or PDE4D (human recombinant) can optionally be determined by IMAP Fluorescence Polarisation (FP) assay (IMAP Explorer kit, available from Molecular Devices Corporation, Sunnydale, Calif., USA; Molecular Devices code: R8062) in 384-well format.
The IMAP FP assay is able to measure PDE activity in an homogenous, non-radioactive assay format. The FP assay uses the ability of immobilised trivalent metal cations, coated onto nanoparticles (tiny beads), to bind the phosphate group of Fl-AMP that is produced on the hydrolysis of fluorescein-labelled (Fl) cyclic adenosine mono-phosphate (Fl-cAMP) to the non-cyclic Fl-AMP form. […] Binding of Fl-AMP product to the beads (coated with the immobilised trivalent cations) slows the rotation of the bound Fl-AMP and leads to an increase in the fluorescence polarisation ratio of parallel to perpendicular light. Inhibition of the PDE reduces/inhibits this signal increase. […]

[4] = micronised, V = 5 to 7 bar, R = 3 to 4 bar

T1 sequence (Q07343 1-564 isoform Q07343-2): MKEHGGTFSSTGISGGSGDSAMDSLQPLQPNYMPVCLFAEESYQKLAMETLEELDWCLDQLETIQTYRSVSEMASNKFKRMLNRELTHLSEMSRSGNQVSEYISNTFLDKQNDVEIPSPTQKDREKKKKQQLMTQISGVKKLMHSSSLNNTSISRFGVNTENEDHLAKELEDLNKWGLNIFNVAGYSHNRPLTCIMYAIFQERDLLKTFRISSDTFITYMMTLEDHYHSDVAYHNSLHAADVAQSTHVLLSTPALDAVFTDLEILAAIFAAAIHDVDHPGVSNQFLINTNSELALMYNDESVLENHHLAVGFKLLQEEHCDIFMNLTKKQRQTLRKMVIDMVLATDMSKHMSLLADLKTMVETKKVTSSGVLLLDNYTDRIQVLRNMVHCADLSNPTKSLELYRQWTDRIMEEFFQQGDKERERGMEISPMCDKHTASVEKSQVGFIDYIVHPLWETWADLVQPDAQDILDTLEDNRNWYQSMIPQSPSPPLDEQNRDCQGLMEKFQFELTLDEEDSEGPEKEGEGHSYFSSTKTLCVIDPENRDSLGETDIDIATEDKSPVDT

Q: Which “D20 for emesis (dose giving 20% incidence of emesis)” value [1] does the source give for `O=C(Nc1c(Cl)cncc1Cl)c1ccc(OC(F)F)c(OCC2CC2)c1` [roflumilast] here?
A: Its value is “about 0.46 mg/kg”.

Q: What about the “D50 for ferret neutrophilia (dose giving 50% inhibition of LPS-induced pulmonary neutrophilia)” value [1] of the same compound?
A: Its value is “about 0.42 mg/kg”.

Q: For `CCC(NC(=O)c1cnc2c(cnn2CC)c1NC1CCOCC1)c1ccc(C)cc1C.Cl` (single isomer, unassigned; enantiomer 2) [Example 307, N-[1-(2,4-dimethylphenyl)propyl]-1-ethyl-4-(tetrahydro-2H-pyran-4-ylamino)-1H-pyrazolo[3,4-b]pyridine-5-carboxamide (Enantiomer 2) hydrochloride], which “Particle Size Data D10 (micronised material)” value [2, 4] is on record?
A: Its value is “D10 = 0.84 microns”.

Q: What about the “Particle Size Data D50 (micronised material)” value [2, 4] of the same compound?
A: Its value is “D50 = 1.56 microns”.

Q: And the “Particle Size Data D90 (micronised material)” value [2, 4]?
A: The value was “D90 = 2.74 microns”.

Q: And the “Particle Size Data D10 (unmicronised material)” value ([2]; unmicronised)?
A: The value was “D10 = 2.48 microns”.

Q: And the “Particle Size Data D50 (unmicronised material)” value ([2]; unmicronised)?
A: Its value is “D50 = 8.98 microns”.

Q: What about the “Particle Size Data D90 (unmicronised material)” value ([2]; unmicronised) of the same compound?
A: The value was “D90 = 24.14 microns”.

Q: Which IC50 [3] does the source give for `CCC(NC(=O)c1cnc2c(cnn2CC)c1NC1CCC(=O)CC1)c1ccc(Br)cc1` (centres unmarked) [Example 218, N-[1-(4-bromophenyl)propyl]-1-ethyl-4-[(4-oxocyclohexyl)amino]-1H-pyrazolo[3,4-b]pyridine-5-carboxamide] here?
A: The IC50 was 0.1 to 2 nM.

Q: Which IC50 [3] does the source give for `CCn1ncc2c(NC3CCOCC3)c(C(=O)N[C@H](C)c3cccc4ccccc34)cnc21` [Example 37, 1-ethyl-N-[(1R)-1-(1-naphthalenyl)ethyl]-4-(tetrahydro-2H-pyran-4-ylamino)-1H-pyrazolo[3,4-b]pyridine-5-carboxamide] here?
A: The IC50 was 12.6 to 25.1 nM.

Q: Which results are given for `CCn1ncc2c(NC3CCOCC3)c(C(=O)N[C@H](COC)c3ccccc3)cnc21` [Example 24, 1-ethyl-N-[(1S)-2-(methyloxy)-1-phenylethyl]-4-(tetrahydro-2H-pyran-4-ylamino)-1H-pyrazolo[3,4-b]pyridine-5-carboxamide]?
A: PDE4B inhibitory activity compared with the comparable Example of opposite stereochemistry at the CR4R5 (benzylic) carbon atom [3]: greater PDE4B inhibitory activity; IC50 [3]: 0.794 to 5.01 nM

Q: Which “PDE4B inhibitory activity compared with the comparable Example of opposite stereochemistry at the CR4R5 (benzylic) carbon atom” value [3] does the source give for `CCn1ncc2c(NC3CCOCC3)c(C(=O)N[C@H](CO)c3ccccc3)cnc21` [Example 28, 1-ethyl-N-[(1S)-2-hydroxy-1-phenylethyl]-4-(tetrahydro-2H-pyran-4-ylamino)-1H-pyrazolo[3,4-b]pyridine-5-carboxamide] here?
A: The value was “greater PDE4B inhibitory activity”.

Q: What about the IC50 [3] of the same compound?
A: The IC50 was 0.794 to 5.01 nM.
